Blank lines part the entries; values can stand above or below the compound they belong to.
Legend:
[1] = tested on: rat oligodendrocyte progenitor cells; test: Promotive activity of rat oligodendrocyte progenitor cell differentiation-2 (immunostaining of MBP); format: cell-based; conditions: vitamin D derivative 2 μM, T3 30 nM, 4 days
Protocol: The promotive activity of oligodendrocyte progenitor cell (OPC) differentiation of the vitamin D derivatives was evaluated by immunostaining of MBP.
Subsequently, oligodendrocyte progenitor cell separation medium was added to the flask, and the mixture was similarly shaken for about 22 hours (37° C., 200 rpm), and the supernatant was collected to prepare oligodendrocyte progenitor cells.

[2] = Evaluation of brain penetration in mice (blood and brain concentration at brain Cmax); format: in vivo, mouse; conditions: 1 mg/kg single oral dose, C57BL/6J mice
Protocol: The administration solution was administered orally to C57BL/6J mice (8 weeks old, male, n=3) at a single dose (1 mg/kg). Mice were euthanized at 6 points of 0.25, 0.5, 1, 2, 4, and 8 hours after administration, and plasma and brain sampling were performed. After preparing a homogenate from the collected brain using Tissue Lyser II (QIAGEN #85300), acetonitrile was added to the homogenate and the homogenate was centrifuged (12000 rpm, 5 minutes) to extract the administered test compound contained in the brain. Similarly, the plasma was subjected to addition of acetonitrile and centrifugal separation to extract the administered test compound contained in the plasma. Each extracted sample was subjected to measurement of the concentration of administered test compound using LC/MS/MS (SHIMADZU UFLC/MS/MS (8050)).
Test 2 [0.2 mg/kg Administration Study] […] The administration solution was administered orally to C57BL/6J mice (8 weeks old, male, n=3) at a single dose (0.2 mg/kg). Mice were euthanized at 6 points of 0.25, 0.5, 1, 2, 4, and 8 hours after administration, and plasma and brain sampling were performed. After preparing a homogenate from the collected brain using Tissue Lyser II (QIAGEN #85300), acetonitrile was added to the homogenate and the homogenate was centrifuged (12000 rpm, 5 minutes) to extract the administered compound contained in the brain. Similarly, the plasma was subjected to addition of acetonitrile and centrifugal separation to extract the administered test compound contained in the plasma. Each extracted sample was subjected to measurement of the concentration of administered test compound using LC/MS/MS (SHIMADZU UFLC/MS/MS (8050)).

[3] = molecular target: T1, human VDR (Homo sapiens, UniProt P11473); test: Evaluation of VDR transcription activity in human osteoblasts (HOS cells), luciferase reporter; conditions: read-out: Activity (EC50, VDR transcription activity); HOS cells transfected with human VDR, human RXRα and DR3 luciferase reporter; 21 hours
T1 sequence (P11473 1-427): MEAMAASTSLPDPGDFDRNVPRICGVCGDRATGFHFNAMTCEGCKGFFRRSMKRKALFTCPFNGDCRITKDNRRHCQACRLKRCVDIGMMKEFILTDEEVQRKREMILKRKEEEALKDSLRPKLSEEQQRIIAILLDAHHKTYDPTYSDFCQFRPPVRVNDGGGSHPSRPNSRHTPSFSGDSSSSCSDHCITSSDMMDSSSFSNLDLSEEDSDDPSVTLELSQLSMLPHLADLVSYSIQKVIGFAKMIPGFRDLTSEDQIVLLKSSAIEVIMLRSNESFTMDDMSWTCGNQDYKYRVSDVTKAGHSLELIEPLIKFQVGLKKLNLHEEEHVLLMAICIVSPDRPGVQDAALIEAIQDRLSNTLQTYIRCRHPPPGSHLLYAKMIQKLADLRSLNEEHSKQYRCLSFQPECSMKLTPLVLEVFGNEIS
T1 sequence (P19793 1-462 partner): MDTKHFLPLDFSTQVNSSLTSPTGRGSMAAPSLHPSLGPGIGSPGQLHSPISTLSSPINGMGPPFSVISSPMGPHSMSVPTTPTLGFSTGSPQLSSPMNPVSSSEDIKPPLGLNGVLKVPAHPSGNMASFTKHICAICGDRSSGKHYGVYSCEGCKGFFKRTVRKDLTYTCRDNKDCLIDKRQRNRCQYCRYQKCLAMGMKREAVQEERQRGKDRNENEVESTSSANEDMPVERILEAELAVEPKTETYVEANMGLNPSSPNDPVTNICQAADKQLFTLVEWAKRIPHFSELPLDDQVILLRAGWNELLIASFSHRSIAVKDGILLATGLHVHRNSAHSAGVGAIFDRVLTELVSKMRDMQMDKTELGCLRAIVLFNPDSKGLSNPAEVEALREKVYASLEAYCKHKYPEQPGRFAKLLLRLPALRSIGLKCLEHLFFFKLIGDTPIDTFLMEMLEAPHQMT

Structure (SMILES): C[C@H](CN1CCN(C)C[C@H]1C)[C@H]1CC[C@H]2/C(=C/C=C3C[C@@H](O)C[C@H](O)C3)CCC[C@]12C [Compound G012, (1R,3R)-5-(2-((1R,3aS,7aR,E)-1-((S)-1-((R)-2,4-dimethylpiperazin-1-yl)propan-2-yl)-7a-methyloctahydro-4H-inden-4-ylidene)ethylidene)cyclohexane-1,3-diol]
Mean (number of MBP-positive cells/number of Hoechst33342-positive cells) ([1]; Test 5): 0.22

Structure (SMILES): C=C1[C@H](O)CC(=C/C=C2\CCC[C@]3(C)[C@@H]([C@H](C)CN4CCCC[C@H]4C)CC[C@@H]23)C[C@H]1O [Compound H002, (1R,3R)-5-(2-((1R,3aS,7aR,E)-7a-methyl-1-((S)-1-((R)-2-methylpiperidin-1-yl)propan-2-yl)octahydro-4H-inden-4-ylidene)ethylidene)-2-methylenecyclohexane-1,3-diol]
Mean (number of MBP-positive cells/number of Hoechst33342-positive cells) ([1]; Test 9): 0.39

Structure (SMILES): C[C@H](CN1CCOC[C@@H]1C1CC1)[C@H]1CC[C@H]2/C(=C/C=C3C[C@@H](O)C[C@H](O)C3)CCC[C@]12C [Compound G008, (1R,3R)-5-(2-((1R,3aS,7aR,E)-1-((S)-1-((S)-3-cyclopropylmorpholino)propan-2-yl)-7a-methyloctahydro-4H-inden-4-ylidene)ethylidene)cyclohexane-1,3-diol]
Mean (number of MBP-positive cells/number of Hoechst33342-positive cells) ([1]; Test 5): 0.36

Structure (SMILES): C=C1/C(=C\C=C2/CCC[C@]3(C)[C@@H]([C@H](C)CN4CCOCC4(C)C)CC[C@@H]23)C[C@@H](O)C[C@@H]1O [Compound F006, (1R,3S,Z)-5-(2-((1R,3aS,7aR,E)-1-((S)-1-(3,3-dimethylmorpholino)propan-2-yl)-7a-methyloctahydro-4H-inden-4-ylidene)ethylidene)-4-methylenecyclohexane-1,3-diol]
Mean (number of MBP-positive cells/number of Hoechst33342-positive cells) ([1]; Test 4): 0.44

Structure (SMILES): C=C1/C(=C\C=C2/CCC[C@]3(C)[C@@H]([C@H](C)CN4CCOC[C@H]4C)CC[C@@H]23)C[C@@H](O)C[C@H]1O [Compound I005, (1R,3R,Z)-5-(2-((1R,3aS,7aR,E)-7a-methyl-1-((S)-1-((R)-3-methylmorpholino)propan-2-yl)octahydro-4H-inden-4-ylidene)ethylidene)-4-methylenecyclohexane-1,3-diol]
Mean (number of MBP-positive cells/number of Hoechst33342-positive cells) ([1]; Test 4): 0.43

Structure (SMILES): C=C1/C(=C\C=C2/CCC[C@]3(C)[C@@H]([C@H](C)CN4CCOCC4(C)C)CC[C@@H]23)C[C@@H](O)C[C@H]1O [Compound I006, (1R,3R,Z)-5-(2-((1R,3aS,7aR,E)-1-((S)-1-(3,3-dimethylmorpholino)propan-2-yl)-7a-methyloctahydro-4H-inden-4-ylidene)ethylidene)-4-methylenecyclohexane-1,3-diol]
Mean (number of MBP-positive cells/number of Hoechst33342-positive cells) ([1]; Test 4): 0.51

Structure (SMILES): C=C1/C(=C\C=C2/CCC[C@]3(C)[C@@H]([C@H](C)CN4CCC[C@H]4C(C)(C)O)CC[C@@H]23)C[C@@H](O)C[C@@H]1O [Compound F014, (1R,3S,Z)-5-(2-((1R,3aS,7aR,E)-1-((S)-1-((S)-2-(2-hydroxypropan-2-yl)pyrrolidin-1-yl)propan-2-yl)-7a-methyloctahydro-4H-inden-4-ylidene)ethylidene)-4-methylenecyclohexane-1,3-diol]
Mean (number of MBP-positive cells/number of Hoechst33342-positive cells) ([1]; Test 8): 0.29

Structure (SMILES): C=C1/C(=C\C=C2/CCC[C@]3(C)[C@@H]([C@H](C)CN4CCN(C)C[C@@H]4C)CC[C@@H]23)C[C@@H](O)C[C@@H]1O [Compound F011, (1R,3S,Z)-5-(2-((1R,3aS,7aR,E)-1-((S)-1-((S)-2,4-dimethylpiperazin-1-yl)propan-2-yl)-7a-methyloctahydro-4H-inden-4-ylidene)ethylidene)-4-methylenecyclohexane-1,3-diol]
Mean (number of MBP-positive cells/number of Hoechst33342-positive cells) ([1]; Test 5): 0.26

Structure (SMILES): C=C1/C(=C\C=C2/CCC[C@]3(C)[C@@H]([C@H](C)CN4CCOC[C@@H]4C)CC[C@@H]23)C[C@@H](O)C[C@H]1O [Compound I004, (1R,3R,Z)-5-(2-((1R,3aS,7aR,E)-7a-methyl-1-((S)-1-((S)-3-methylmorpholino)propan-2-yl)octahydro-4H-inden-4-ylidene)ethylidene)-4-methylenecyclohexane-1,3-diol]
Mean (number of MBP-positive cells/number of Hoechst33342-positive cells) ([1]; Test 4): 0.44

Structure (SMILES): C=C1/C(=C\C=C2/CCC[C@]3(C)[C@@H]([C@H](C)CN4CCC[C@@H]4C(C)(C)O)CC[C@@H]23)C[C@@H](O)C[C@@H]1O [Compound F013, (1R,3S,Z)-5-(2-((1R,3aS,7aR,E)-1-((S)-1-((R)-2-(2-hydroxypropan-2-yl)pyrrolidin-1-yl)propan-2-yl)-7a-methyloctahydro-4H-inden-4-ylidene)ethylidene)-4-methylenecyclohexane-1,3-diol]
Mean (number of MBP-positive cells/number of Hoechst33342-positive cells) ([1]; Test 9): 0.31

Structure (SMILES): C=C1[C@H](O)CC(=C/C=C2\CCC[C@]3(C)[C@@H]([C@H](C)CN4CCCC[C@@H]4C)CC[C@@H]23)C[C@H]1O [Compound H001, (1R,3R)-5-(2-((1R,3aS,7aR,E)-7a-methyl-1-((S)-1-((S)-2-methylpiperidin-1-yl)propan-2-yl)octahydro-4H-inden-4-ylidene)ethylidene)-2-methylenecyclohexane-1,3-diol]
Mean (number of MBP-positive cells/number of Hoechst33342-positive cells) ([1]; Test 7): 0.48

Structure (SMILES): C=C1/C(=C\C=C2/CCC[C@]3(C)[C@@H]([C@H](C)CN4CCOC[C@@H]4C4CC4)CC[C@@H]23)C[C@@H](O)C[C@@H]1O [Compound F008, (1R,3 S,Z)-5-(2-((1R,3aS,7aR,E)-1-((S)-1-((S)-3-cyclopropylmorpholino)propan-2-yl)-7a-methyloctahydro-4H-inden-4-ylidene)ethylidene)-4-methylenecyclohexane-1,3-diol]
Mean (number of MBP-positive cells/number of Hoechst33342-positive cells) ([1]; Test 5): 0.45

Structure (SMILES): C=C1/C(=C\C=C2/CCC[C@]3(C)[C@@H]([C@H](C)CN4CCN(C)C[C@H]4C)CC[C@@H]23)C[C@@H](O)C[C@@H]1O [Compound F012, (1R,3S,Z)-5-(2-((1R,3aS,7aR,E)-1-((S)-1-((R)-2,4-dimethylpiperazin-1-yl)propan-2-yl)-7a-methyloctahydro-4H-inden-4-ylidene)ethylidene)-4-methylenecyclohexane-1,3-diol]
Mean (number of MBP-positive cells/number of Hoechst33342-positive cells) ([1]; Test 7): 0.23

Structure (SMILES): C[C@H](CN1CCCC[C@H]1C)[C@H]1CC[C@H]2/C(=C/C=C3C[C@@H](O)C[C@H](O)C3)CCC[C@]12C [Compound G002, (1R,3R)-5-(2-((1R,3aS,7aR,E)-7a-methyl-1-((S)-1-((R)-2-methylpiperidin-1-yl)propan-2-yl)octahydro-4H-inden-4-ylidene)ethylidene)cyclohexane-1,3-diol]
Mean (number of MBP-positive cells/number of Hoechst33342-positive cells) ([1]; Test 3): 0.33

Concentration in brain/in blood ratio at brain Cmax [2]: 0.25
Concentration in blood (mean ± SD) at brain Cmax ([2]; n=3): 444 ± 113 nM
Concentration in brain (mean ± SD) at brain Cmax ([2]; n=3): 109 ± 22 pmol/g
EC50 [3]: < 1 nM
Structure (SMILES): C[C@H](CN1CCC(O)(C(F)(F)F)C1)[C@H]1CC[C@H]2/C(=C/C=C3C[C@@H](O)C[C@H](O)C3)CCC[C@]12C (single isomer, unassigned) [Compound B045b]

— patent US20230348376A1 (TEIJIN PHARMA LIMITED, priority 2020, published 2023)
